Columns and labels:
Assay type in all cases: biochemical
Recombinant human FAP = target: T1, Recombinant human FAP (Homo sapiens, UniProt Q12884); test: FAP inhibition, fluorogenic substrate Z-Gly-Pro-AMC; details: recombinant human FAP, substrate Z-Gly-Pro-AMC
T1 construct: purchased R&D systems
T1 sequence (Q12884 1-760): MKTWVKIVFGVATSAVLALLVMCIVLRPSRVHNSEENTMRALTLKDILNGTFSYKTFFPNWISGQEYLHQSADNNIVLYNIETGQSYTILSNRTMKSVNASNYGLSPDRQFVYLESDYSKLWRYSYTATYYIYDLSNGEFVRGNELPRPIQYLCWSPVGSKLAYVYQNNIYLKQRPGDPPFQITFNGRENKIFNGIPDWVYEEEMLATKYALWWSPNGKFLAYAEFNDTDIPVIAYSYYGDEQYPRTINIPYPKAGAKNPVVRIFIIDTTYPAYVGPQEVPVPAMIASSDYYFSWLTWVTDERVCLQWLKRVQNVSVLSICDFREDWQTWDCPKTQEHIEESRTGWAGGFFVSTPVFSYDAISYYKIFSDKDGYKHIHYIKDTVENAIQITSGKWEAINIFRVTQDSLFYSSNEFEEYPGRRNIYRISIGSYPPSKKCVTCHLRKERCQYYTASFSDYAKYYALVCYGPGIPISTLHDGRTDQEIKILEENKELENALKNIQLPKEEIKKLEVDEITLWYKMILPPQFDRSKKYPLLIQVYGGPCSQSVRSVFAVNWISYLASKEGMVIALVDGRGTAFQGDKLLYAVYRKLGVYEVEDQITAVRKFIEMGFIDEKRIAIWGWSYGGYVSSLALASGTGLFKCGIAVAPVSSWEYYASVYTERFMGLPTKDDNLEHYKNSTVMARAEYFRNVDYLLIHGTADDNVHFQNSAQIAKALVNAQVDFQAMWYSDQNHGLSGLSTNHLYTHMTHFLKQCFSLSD
Summary of the method: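 Recombinant human FAP, 10 ng per reaction, in 50 mM Tris pH 7.5 with 1 M NaCl and 1 mg/ml BSA at 25° C; substrate Z-Gly-Pro-AMC, ≤0.1% DMSO. AMC fluorescence read at ex 380/em 460 nm; % signal-rate decrease vs no-inhibitor control, 8-point curves fitted to a four-parameter logistic for IC50.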

recombinant human DPP9 = target: T2, recombinant human DPP9 (Homo sapiens, UniProt Q86TI2); test: DPP9 inhibition, fluorogenic substrate H-Gly-Pro-AMC; details: recombinant human DPP9
T2 construct: purchased R&D Systems
T2 sequence (Q86TI2 whole entry): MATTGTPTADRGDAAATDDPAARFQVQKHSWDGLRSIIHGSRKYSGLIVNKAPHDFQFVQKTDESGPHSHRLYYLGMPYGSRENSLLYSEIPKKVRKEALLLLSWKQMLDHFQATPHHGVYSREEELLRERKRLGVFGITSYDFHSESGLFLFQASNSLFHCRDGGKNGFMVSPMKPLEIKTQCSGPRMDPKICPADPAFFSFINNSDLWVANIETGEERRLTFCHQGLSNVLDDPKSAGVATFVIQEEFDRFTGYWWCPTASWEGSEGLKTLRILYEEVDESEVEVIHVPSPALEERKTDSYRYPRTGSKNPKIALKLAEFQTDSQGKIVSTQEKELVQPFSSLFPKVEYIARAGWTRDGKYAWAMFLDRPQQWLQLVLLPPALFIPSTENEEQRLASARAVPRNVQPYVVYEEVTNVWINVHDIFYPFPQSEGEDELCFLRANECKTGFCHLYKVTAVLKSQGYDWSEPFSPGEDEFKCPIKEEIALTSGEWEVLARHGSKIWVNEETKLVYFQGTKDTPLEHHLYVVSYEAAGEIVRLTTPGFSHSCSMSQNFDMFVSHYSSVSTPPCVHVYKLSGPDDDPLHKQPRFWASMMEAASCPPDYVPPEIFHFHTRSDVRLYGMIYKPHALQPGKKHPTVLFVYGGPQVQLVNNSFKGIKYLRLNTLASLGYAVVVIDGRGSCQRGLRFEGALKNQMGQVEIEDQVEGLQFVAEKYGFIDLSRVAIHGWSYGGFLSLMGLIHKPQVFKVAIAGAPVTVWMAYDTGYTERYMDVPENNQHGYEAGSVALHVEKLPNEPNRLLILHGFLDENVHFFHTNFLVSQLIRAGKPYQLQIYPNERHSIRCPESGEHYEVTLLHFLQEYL
Summary of the method: (§1)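 Enzyme per reaction: 50 ng DPP9, 20 ng DPP8, 10 ng each DPP7 and PREP. Compounds were serially diluted (8 points, up to 0.5% DMSO) and incubated at 25 °C.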

DPP4 = DPP4 (Homo sapiens, UniProt P27487); test: DPP4 inhibition, fluorogenic substrate H-Gly-Pro-AMC; set-up: purchased R&D Systems; details: recombinant human DPP4
DPP4, sequence (P27487 whole entry): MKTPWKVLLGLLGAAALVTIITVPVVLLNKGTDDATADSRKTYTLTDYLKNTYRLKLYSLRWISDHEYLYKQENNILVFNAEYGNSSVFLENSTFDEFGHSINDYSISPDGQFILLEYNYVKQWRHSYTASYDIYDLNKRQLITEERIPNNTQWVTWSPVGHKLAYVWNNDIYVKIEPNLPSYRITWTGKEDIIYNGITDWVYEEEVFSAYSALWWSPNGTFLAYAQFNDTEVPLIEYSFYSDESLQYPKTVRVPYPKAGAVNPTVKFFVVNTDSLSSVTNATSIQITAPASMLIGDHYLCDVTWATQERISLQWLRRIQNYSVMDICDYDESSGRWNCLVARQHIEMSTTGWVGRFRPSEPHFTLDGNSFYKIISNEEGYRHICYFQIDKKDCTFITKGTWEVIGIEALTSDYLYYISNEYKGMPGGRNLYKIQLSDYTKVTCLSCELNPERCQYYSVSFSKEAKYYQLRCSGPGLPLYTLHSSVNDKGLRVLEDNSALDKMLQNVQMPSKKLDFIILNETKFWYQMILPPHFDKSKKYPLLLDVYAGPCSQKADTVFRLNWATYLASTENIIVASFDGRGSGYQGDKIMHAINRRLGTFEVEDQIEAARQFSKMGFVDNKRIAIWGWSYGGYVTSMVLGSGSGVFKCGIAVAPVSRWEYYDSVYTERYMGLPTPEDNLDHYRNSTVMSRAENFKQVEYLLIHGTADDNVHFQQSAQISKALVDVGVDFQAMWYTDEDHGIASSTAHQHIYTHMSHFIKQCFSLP

recombinant human DPP8 = target: T3, recombinant human DPP8 (Homo sapiens, UniProt Q6V1X1); test: DPP8 inhibition, fluorogenic substrate Z-Ala-Pro-AMC; details: recombinant human DPP8
T3 construct: purchased PBS Bioscience
T3 sequence (Q6V1X1 whole entry): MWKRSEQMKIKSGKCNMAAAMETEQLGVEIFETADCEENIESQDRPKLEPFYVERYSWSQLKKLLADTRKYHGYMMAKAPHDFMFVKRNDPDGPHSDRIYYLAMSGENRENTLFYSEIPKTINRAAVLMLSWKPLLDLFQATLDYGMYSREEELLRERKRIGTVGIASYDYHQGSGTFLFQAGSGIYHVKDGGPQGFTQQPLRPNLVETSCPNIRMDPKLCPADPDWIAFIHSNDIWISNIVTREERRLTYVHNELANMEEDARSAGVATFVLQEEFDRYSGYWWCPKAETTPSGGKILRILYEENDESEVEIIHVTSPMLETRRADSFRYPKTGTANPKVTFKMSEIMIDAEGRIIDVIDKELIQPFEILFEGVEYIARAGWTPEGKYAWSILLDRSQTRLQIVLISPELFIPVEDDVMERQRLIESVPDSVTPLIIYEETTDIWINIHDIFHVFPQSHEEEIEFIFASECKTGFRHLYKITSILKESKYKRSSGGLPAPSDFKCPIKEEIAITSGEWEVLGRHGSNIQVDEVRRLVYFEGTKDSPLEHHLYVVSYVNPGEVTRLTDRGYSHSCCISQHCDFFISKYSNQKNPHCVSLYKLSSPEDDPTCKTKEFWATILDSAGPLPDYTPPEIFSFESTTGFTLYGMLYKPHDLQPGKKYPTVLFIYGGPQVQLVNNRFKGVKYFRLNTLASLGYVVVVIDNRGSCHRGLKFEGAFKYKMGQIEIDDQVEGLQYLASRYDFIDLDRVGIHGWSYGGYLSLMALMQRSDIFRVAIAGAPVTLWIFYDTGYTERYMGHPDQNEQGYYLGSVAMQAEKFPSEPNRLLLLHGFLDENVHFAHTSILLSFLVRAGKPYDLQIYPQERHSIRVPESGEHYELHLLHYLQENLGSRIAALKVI
Summary of the method: as §1

recombinant human PREP = target: T4, recombinant human PREP (Homo sapiens, UniProt P48147); test: PREP inhibition, fluorogenic substrate Z-Gly-Pro-AMC; details: Inhibitory Activity (IC50, nM) PREP, recombinant human PREP
T4 construct: purchased R&D System
T4 sequence (P48147 1-710): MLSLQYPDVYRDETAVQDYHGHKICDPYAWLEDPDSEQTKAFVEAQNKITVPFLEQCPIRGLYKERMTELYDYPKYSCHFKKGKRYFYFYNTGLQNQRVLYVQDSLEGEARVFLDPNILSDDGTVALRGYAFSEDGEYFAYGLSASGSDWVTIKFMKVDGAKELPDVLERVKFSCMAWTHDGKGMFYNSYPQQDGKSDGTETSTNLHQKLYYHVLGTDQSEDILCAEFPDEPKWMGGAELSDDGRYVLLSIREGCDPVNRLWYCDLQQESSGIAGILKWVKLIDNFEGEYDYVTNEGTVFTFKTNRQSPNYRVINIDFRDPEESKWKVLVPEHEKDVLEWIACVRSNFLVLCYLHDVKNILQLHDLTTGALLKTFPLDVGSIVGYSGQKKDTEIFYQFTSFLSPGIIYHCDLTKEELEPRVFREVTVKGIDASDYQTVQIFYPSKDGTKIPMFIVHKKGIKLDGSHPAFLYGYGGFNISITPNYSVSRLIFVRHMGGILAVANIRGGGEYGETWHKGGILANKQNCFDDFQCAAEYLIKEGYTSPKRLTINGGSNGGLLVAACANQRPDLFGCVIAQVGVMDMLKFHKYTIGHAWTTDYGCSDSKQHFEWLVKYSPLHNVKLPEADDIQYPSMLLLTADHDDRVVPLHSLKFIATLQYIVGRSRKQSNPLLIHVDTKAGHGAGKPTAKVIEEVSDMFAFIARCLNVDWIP
Summary of the method: as §1

recombinant human DPP7 = target: T5, recombinant human DPP7 (Homo sapiens, UniProt Q9UHL4); test: DPP7 inhibition, fluorogenic substrate Lys-Pro-AMC; details: recombinant human DPP7
T5 construct: purchased R&D Systems
Summary of the method: as §1

| IC50 (Recombinant human FAP) | IC50 (recombinant human DPP9) | IC50 (DPP4) | IC50 (recombinant human DPP8) | IC50 (recombinant human PREP) | IC50 (recombinant human DPP7) | Compound |
| --- | --- | --- | --- | --- | --- | --- |
| 0.9 nM | 21000 nM | > 10000 nM | > 30000 nM | 11300 nM | 2560 nM | N#C[C@@H]1CCCN1C(=O)CN1CC[C@H](Nc2ccc(OC(F)(F)F)c3ncccc23)C1 [Example 246, (2S)-1-[2-[(3S)-3-[[8-(trifluoromethoxy)-5-quinolyl]amino]pyrrolidin-1-yl]acetyl]pyrrolidine-2-carbonitrile] |
| 3.1 nM | 3680 nM | 7070 nM | 5340 nM | 6160 nM | 810 nM | N#C[C@@H]1CCCN1C(=O)CN1CC[C@H](Nc2ccc(OCc3ccccc3)c3ncccc23)C1 [Example 248, (2S)-1-[2-[(3S)-3-[(8-benzyloxy-5-quinolyl)amino]pyrrolidin-1-yl]acetyl]pyrrolidine-2-carbonitrile] |
| 6 nM | 5770 nM | 1450 nM | > 3000 nM | 1050 nM | 489 nM | N#C[C@@H]1C[C@H](F)CN1C(=O)CN1CC[C@H](Nc2cnc3ccccc3c2)C1 [Example 249, (2S,4S)-4-fluoro-1-[2-[(3S)-3-(3-quinolylamino)pyrrolidin-1-yl]acetyl]pyrrolidine-2-carbonitrile] |
| 3.4 nM | 3690 nM | 964 nM | 2280 nM | 2160 nM | 654 nM | N#C[C@@H]1C[C@H](F)CN1C(=O)CN1CC[C@H](Nc2ccc3ncccc3c2)C1 [Example 250, (2S,4S)-4-fluoro-1-[2-[(3S)-3-(6-quinolylamino)pyrrolidin-1-yl]acetyl]pyrrolidine-2-carbonitrile] |
| 0.8 nM | 4930 nM | 1630 nM | 2480 nM | 3320 nM | 308 nM | N#Cc1ccc2c(N[C@H]3CCN(CC(=O)N4C[C@@H](F)C[C@H]4C#N)C3)cccc2n1 [Example 252, 5-[[(3S)-1-[2-oxo-2-[(2S,4S)-2-cyano-4-fluoro-pyrrolidin-1-yl]ethyl]pyrrolidin-3-yl]amino]quinoline-2-carbonitrile] |
| 0.9 nM | 5360 nM | 2310 nM | 2670 nM | 2220 nM | 2190 nM | N#Cc1cnc2cccc(N[C@H]3CCN(CC(=O)N4C[C@@H](F)C[C@H]4C#N)C3)c2c1 [Example 253, 5-[[(3S)-1-[2-oxo-2-[(2S,4S)-2-cyano-4-fluoro-pyrrolidin-1-yl]ethyl]pyrrolidin-3-yl]amino]quinoline-3-carbonitrile] |
| 2.1 nM | 13100 nM | 4710 nM | 12200 nM | 275 nM | 1400 nM | COc1cnc2cccc(N[C@H]3CCN(CC(=O)N4C[C@@H](F)C[C@H]4C#N)C3)c2c1 [Example 254, (2S,4S)-4-fluoro-1-[2-[(3S)-3-[(3-methoxy-5-quinolyl)amino]pyrrolidin-1-yl]acetyl]pyrrolidine-2-carbonitrile] |
| 0.8 nM | 6960 nM | 1880 nM | 3350 nM | 603 nM | 1790 nM | N#C[C@@H]1C[C@H](F)CN1C(=O)CN1CC[C@H](Nc2cccc3ncc(Cl)cc23)C1 [Example 256, (2S,4S)-4-fluoro-1-[2-[(3S)-3-[(3-chloro-5-quinolyl)amino]pyrrolidin-1-yl]acetyl]pyrrolidine-2-carbonitrile] |
| 0.9 nM | 6560 nM | 694 nM | 4540 nM | 1530 nM | 289 nM | COc1cc(N[C@H]2CCN(CC(=O)N3C[C@@H](F)C[C@H]3C#N)C2)c2cccnc2c1 [Example 257, (2S,4S)-4-fluoro-1-[2-[(3S)-3-[(7-methoxy-5-quinolyl)amino]pyrrolidin-1-yl]acetyl]pyrrolidine-2-carbonitrile] |
| 1 nM | 7970 nM | 1830 nM | > 100000 nM | 1280 nM | 1390 nM | N#C[C@@H]1C[C@H](F)CN1C(=O)CN1CC[C@H](Nc2cc(C(F)(F)F)cc3ncccc23)C1 [Example 258, (2S,4S)-4-fluoro-1-[2-[(3S)-3-[[7-(trifluoromethyl)-5-quinolyl]amino]pyrrolidin-1-yl]acetyl]pyrrolidine-2-carbonitrile] |
| 2.6 nM | 8430 nM | 1270 nM | 18600 nM | 2470 nM | 3310 nM | Cc1ccc2ncccc2c1N[C@H]1CCN(CC(=O)N2C[C@@H](F)C[C@H]2C#N)C1 [Example 259, (2S,4S)-4-fluoro-1-[2-[(3S)-3-[(6-methyl-5-quinolyl)amino]pyrrolidin-1-yl]acetyl]pyrrolidine-2-carbonitrile] |
| 5.8 nM | 7710 nM | 741 nM | 20800 nM | 6500 nM | 8280 nM | COc1ccc2ncccc2c1N[C@H]1CCN(CC(=O)N2C[C@@H](F)C[C@H]2C#N)C1 [Example 260, (2S,4S)-4-fluoro-1-[2-[(3S)-3-[(6-methoxy-5-quinolyl)amino]pyrrolidin-1-yl]acetyl]pyrrolidine-2-carbonitrile] |
| 2 nM | 9420 nM | 1170 nM | 20800 nM | 3940 nM | 6570 nM | N#C[C@@H]1C[C@H](F)CN1C(=O)CN1CC[C@H](Nc2c(F)ccc3ncccc23)C1 [Example 261, (2S,4S)-4-fluoro-1-[2-[(3S)-3-[(6-fluoro-5-quinolyl)amino]pyrrolidin-1-yl]acetyl]pyrrolidine-2-carbonitrile] |
| 1.2 nM | 3560 nM | 1360 nM | 3010 nM | 1850 nM | 452 nM | Cc1ccc(N[C@H]2CCN(CC(=O)N3C[C@@H](F)C[C@H]3C#N)C2)c2cccnc12 [Example 262, (2S,4S)-4-fluoro-1-[2-[(3S)-3-[(8-methyl-5-quinolyl)amino]pyrrolidin-1-yl]acetyl]pyrrolidine-2-carbonitrile] |
| 0.8 nM | 5420 nM | 1240 nM | > 100000 nM | 1730 nM | 1130 nM | N#C[C@@H]1C[C@H](F)CN1C(=O)CN1CC[C@H](Nc2ccc(C(F)(F)F)c3ncccc23)C1 [Example 265, (2S,4S)-4-fluoro-1-[2-[(3S)-3-[[8-(trifluoromethyl)-5-quinolyl]amino]pyrrolidin-1-yl]acetyl]pyrrolidine-2-carbonitrile] |
| 1.2 nM | 4920 nM | 2840 nM | 7180 nM | 2310 nM | 812 nM | N#C[C@@H]1C[C@H](F)CN1C(=O)CN1CC[C@H](Nc2cc(F)cc3ncccc23)C1 [Example 269, (2S,4S)-4-fluoro-1-[2-[(3S)-3-[(7-fluoro-5-quinolyl)amino]pyrrolidin-1-yl]acetyl]pyrrolidine-2-carbonitrile] |

Source: US11655235B2, “Pyrrolidine and piperidine compounds” (YUHAN CORPORATION, priority 2019, dated 2023)
